What was measured:
[1] = clinical PK profile; cited from earlier work
MI hearts = assay: Whole-body PET imaging of ^18F-OM for detection of MI in mice; assay type: in vivo; conditions: for cardiac uptake in MI hearts compared to sham/normal hearts, PET: occluded left anterior descending coronary artery model
Procedure: Approximately 80 uCi of ^18F-OM was injected and images were acquired after 4 h. […] In another non-limiting embodiment of the present disclosure, the OM or OM-liposomes can be labeled with ^18F radionuclide for PET imaging of myocardial infarction as an infarct-avid radiotracer. Unlike radiotracers for perfusion imaging, infarct-avid agents are not taken up by normal myocardium and only accumulate at the site of acute infarct. Therefore, infarct radiotracers produce images with less background and improved signal-to-noise ratio. Currently, no infarct-avid radiotracer is available for clinical PET imaging of infarct tissue. […] After successful labeling, we investigated ^18F-OM for detection of MI in a mouse model of occluded anterior descending branch of the left coronary artery. After imaging, the mice were euthanized to collect various organs for counting of tissue-associated radioactivity.

[2] = approx. 80 uCi, images after 4 h, FIG. 6

Row | SMILES | mean apparent terminal elimination half-life (t1/2) [1] [h] | accumulation in sham hearts, PET (MI hearts; FIG. 7) | background signal from accumulation in liver and lung tissue (MI hearts; PET, mice) | detection of surgical MI, target/non-target ratio (MI hearts; PET, mice, FIG. 6) | accumulation in hearts of MI mice, whole-body PET (MI hearts; [2]) | accumulation in normal hearts of control mice, whole-body PET (MI hearts; [2]) | cardiac uptake in MI hearts compared to sham/normal hearts, PET (MI hearts; FIG. 7) | cardiac uptake in MI hearts compared to sham/normal hearts, PET (MI hearts; FIG. 7, listed as [18F]-OMA)
1 | COC(=O)N1CCN(Cc2cccc(NC(=O)Nc3ccc(C)nc3)c2F)CC1 [OM, omecamtiv mecarbil] | 18.5 | – | – | – | – | – | – | –
2 | COC(=O)N1CCN(Cc2cccc(NC(=O)Nc3ccc(C)nc3)c2OCCF)CC1 [^18F-OM, Methyl 4-(2-(2-fluoroethoxy)-3-(3-(6-methylpyridin-3-yl)ureido)benzyl)piperazine-1-carboxylate] | – | accumulated significant | lack of background signal | high target/non-target ratio | high accumulation | no visible accumulation | significantly more pronounced | distinctly high uptake

— patent US20250049968A1, “THERAPEUTIC AND IMAGING AGENTS FOR TARGETING MYOCARDIAL TISSUE” (The Board of Regents of the University of Oklahoma, priority 2023, published 2025)
